Results as given in US20230192705A1, “SHP2 INHIBITORS, COMPOSITIONS AND USES THEREOF” (Betta Pharmaceuticals Co., Ltd, priority 2020, published 2023).

Experiments:
[1] = target: T1, hERG channel (Homo sapiens, UniProt Q12809); test: Patch clamp assay to test the effect of compound on hERG channel; assay type: cell-based; settings: manual patch clamp, HEK 293 cells expressed with hERG, concentration for half maximum effect
T1 construct: expressed in transfected cells; host or cells: HEK-293
Method: 10 mL extracellular solution was used to dilute the stock solution, making the final concentrations of test compound were 0.3 μM, 1 μM, 3 μM, 10 μM and 30 μM.
The solubility of compound was visually observed.
The cell line was derived from HEK-293 cells, and grown in a humidified environment at 37° C. under 5% CO2, using the media formulation below. The cell line should not be allowed to exceed 80% confluence within the culture vessel to prevent contact inhibition causing senescence and should thus be passaged every 3/4 days using a seeding density of 2*10^6 cells per T175 flask. Cell lines were be pre-washed with phosphate buffered saline before harvesting with Trypsin/EDTA and seeded into new flasks.
HEK 293 cells expressed with hERG were plated on cover slips overnight with the cell density less than 50% of confluence. Cells used for electrophysiological study were transferred to a small cell bath (1 mL) mounted on the stage of an inverted microscope (Diaphot, Nikon) and were perfused with external solution containing (in mM) 130 NaCl, 4 KCl, 1.8 CaCl2), 1 MgCl2, 10 glucose and 10 HEPES (pH 7.4 with NaOH), the perfusion rate was 4 mL/min. The internal pipette solution contained (in mM) 130 KCl, 1 MgCl2, 5 ethylene glycol-bis(baminoethyl ether)-N,N,N8,N8-tetraacetic acid, 5 MgATP and 10 HEPES (pH 7.2 with KOH). An HEKA EPC-10 patch-clamp amplifier and PATCHMASTER acquisition program were used to record membrane currents (HEKA Instruments IncD-67466 Lambrecht/Pfalz Germany). All experiments were performed at room temperature (22-23° C.).
The Model P-97 micropipette puller (Sutter Instrument Company, One Digital Drive, Novato, Calif. 94949) was used to pull glass patch pipettes (BF150-86-10) in all experiments.
The experiments were initiated with a 2 min vehicle control period after forming a whole cell configuration with less 5% run-down in 5 min and the tail currents in the report were at least greater than 500 pA. After a 2 min vehicle control period, the perfusion was switched to the reservoir containing the compound at the first concentration. The same procedure was repeated 3-5 times so that each cell was exposed to 4-6 escalating concentrations of compound. The time courses for block and unblock of hERG during compounds exposure and washout were continuously recorded.
The peak tail of hERG was generated by applying 2-sec depolarizing every 12 sec steps from a holding potential of −80 mV, the peak of tail currents were measured at a 5-sec repolarizing pulse at −50 mV.
hERG peak tail currents were directly measured from a 5 sec repolarization pulse at −50 mV. The fraction of control current was plotted as a function of logarithm of compound concentration. To determine the concentration of compound for halfmaximum effect, the concentration-response curve was fitted by Hill equation as shown follow.
where Y is the observed value, Bottom is the lowest observed value (0), Top is the highest observed value (1), and the Hillcoefficient gives the largest absolute value of the slope of the curve.
Data were analyzed by a combination of PATCHMASTER ((HEKA Instruments IncD-67466 Lambrecht/Pfalz Germany) and Origin (OriginLab Corporation, Northampton, Mass.) software programs.
Data were expressed as mean±SEM.

[2] = target: T2, SHP2 (Homo sapiens, UniProt Q06124); test: SHP2 allosteric inhibitor enzyme activity assay (DiFMUP fluorescence); assay type: biochemical
T2 sequence (Q06124 1-593): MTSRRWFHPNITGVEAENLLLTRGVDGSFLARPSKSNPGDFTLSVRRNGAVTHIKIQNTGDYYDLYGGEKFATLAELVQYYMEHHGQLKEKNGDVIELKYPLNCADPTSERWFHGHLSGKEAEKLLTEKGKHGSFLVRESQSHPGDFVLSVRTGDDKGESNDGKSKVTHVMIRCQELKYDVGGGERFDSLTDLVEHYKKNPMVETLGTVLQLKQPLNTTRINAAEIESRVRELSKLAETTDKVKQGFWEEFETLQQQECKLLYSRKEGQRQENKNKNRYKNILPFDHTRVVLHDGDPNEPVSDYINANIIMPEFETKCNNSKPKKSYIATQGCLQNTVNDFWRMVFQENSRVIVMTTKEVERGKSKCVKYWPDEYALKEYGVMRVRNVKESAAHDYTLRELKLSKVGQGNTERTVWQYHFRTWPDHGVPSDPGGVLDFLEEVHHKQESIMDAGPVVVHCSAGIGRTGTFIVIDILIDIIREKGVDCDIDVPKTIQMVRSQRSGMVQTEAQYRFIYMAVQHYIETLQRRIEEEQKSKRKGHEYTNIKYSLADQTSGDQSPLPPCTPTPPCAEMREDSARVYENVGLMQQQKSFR
Summary of the method: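 SHP2 activated by 0.5 μM IRS1_pY1172(dPEG8)pY1222 peptide, 0.2 ng enzyme per well, 1 h at room temperature with compound (1 μM top, 3-fold series), then DiFMUP substrate 1 h. Buffer: 60 mM HEPES, 75 mM NaCl, 75 mM KCl, 0.05% BRIJ-35, 1 mM EDTA, 5 mM DTT. Fluorescence ex 340/em 450 nm; IC50 by variable-slope fit.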

T1 sequence (Q12809 whole entry): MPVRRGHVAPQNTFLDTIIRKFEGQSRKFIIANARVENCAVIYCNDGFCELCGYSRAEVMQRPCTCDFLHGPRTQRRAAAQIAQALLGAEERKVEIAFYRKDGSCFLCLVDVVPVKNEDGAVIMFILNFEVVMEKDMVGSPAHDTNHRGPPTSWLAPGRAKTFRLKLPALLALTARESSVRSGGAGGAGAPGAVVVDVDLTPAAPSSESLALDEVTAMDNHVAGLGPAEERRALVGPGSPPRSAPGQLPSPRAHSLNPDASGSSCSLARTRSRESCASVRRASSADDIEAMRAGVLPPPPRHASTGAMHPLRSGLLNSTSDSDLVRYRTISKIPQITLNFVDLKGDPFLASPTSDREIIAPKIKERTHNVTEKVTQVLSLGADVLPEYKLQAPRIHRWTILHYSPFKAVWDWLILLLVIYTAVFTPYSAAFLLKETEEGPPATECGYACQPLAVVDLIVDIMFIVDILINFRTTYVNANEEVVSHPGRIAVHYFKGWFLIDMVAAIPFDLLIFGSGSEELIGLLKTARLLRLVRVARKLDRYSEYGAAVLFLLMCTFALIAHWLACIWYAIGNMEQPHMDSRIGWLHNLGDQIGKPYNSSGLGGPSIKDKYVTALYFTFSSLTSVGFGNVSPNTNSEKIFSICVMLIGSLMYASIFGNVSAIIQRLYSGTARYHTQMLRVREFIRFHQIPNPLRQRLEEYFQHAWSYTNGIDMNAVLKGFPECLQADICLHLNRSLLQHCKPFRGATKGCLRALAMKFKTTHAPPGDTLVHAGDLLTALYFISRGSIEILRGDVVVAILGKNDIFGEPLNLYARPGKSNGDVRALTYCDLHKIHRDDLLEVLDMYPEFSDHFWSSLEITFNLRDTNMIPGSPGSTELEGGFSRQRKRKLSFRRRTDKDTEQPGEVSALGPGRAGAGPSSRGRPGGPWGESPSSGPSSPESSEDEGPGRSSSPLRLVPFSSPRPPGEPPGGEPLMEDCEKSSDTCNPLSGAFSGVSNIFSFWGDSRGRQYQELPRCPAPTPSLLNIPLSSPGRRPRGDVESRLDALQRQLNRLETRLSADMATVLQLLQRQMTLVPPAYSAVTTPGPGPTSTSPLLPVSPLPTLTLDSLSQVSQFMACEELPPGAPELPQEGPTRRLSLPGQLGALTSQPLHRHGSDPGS

Row | Structure (SMILES) | IC50 ([2]; class symbols) [µM] | IC50 ([2]; numeric values) [µM] | IC50 [1] [µM]
1 | N[C@@H]1c2ccccc2CC12CCN(c1nc3[nH]nc(C4(c5ccc6c(c5)OCO6)CC4)c3c(=O)[nH]1)CC2 [Example 34, (S)-6-(1-amino-1,3-dihydrospiro[indene-2,4′-piperidin]-1′-yl)-3-(1-(benzo[d][1,3]dioxol-5-yl)cyclopropyl)-1,5-dihydro-4H-pyrazolo[3,4-d]pyrimidin-4-one] | – | 0.0027 | 6.9
2 | N[C@@H]1c2ccccc2CC12CCN(c1nc3[nH]nc(C4(c5ccc(F)cc5)CC4)c3c(=O)[nH]1)CC2 [Example 11, (S)-6-(1-amino-1,3-dihydrospiro[indene-2,4′-piperidin]-1′-yl)-3-(1-(4-fluorophenyl)cyclopropyl)-1,5-dihydro-4H-pyrazolo[3,4-d]pyrimidin-4-one] | ≤ 0.02 | – | –
3 | N[C@@H]1c2ccccc2CC12CCN(c1nc3[nH]nc(C4(c5cccc(C(F)(F)F)c5)CC4)c3c(=O)[nH]1)CC2 [Example 8, (S)-6-(1-amino-1,3-dihydrospiro[indene-2,4′-piperidin]-1′-yl)-3-(1-(3-(trifluoromethyl)plienyl)cyclo-propyl)-1,5-dihydro-4H-pyrazolo[3,4-d]pyrimidin-4-one] | – | 0.0022 | –
4 | N[C@@H]1c2ccccc2CC12CCN(c1nc3[nH]nc(C4(c5cccc(F)c5)CC4)c3c(=O)[nH]1)CC2 [Example 6, (S)-6-(1-amino-1,3-dihydrospiro[indene-2,4′-piperidin]-1′-yl)-3-(1-(3-fluorophenyl)cyclopropyl)-1,5-dihydro-4H-pyrazolo[3,4-d]pyrimidin-4-one] | – | 0.00062 | –
5 | Cn1c(N2CCC3(CC2)Cc2ccccc2[C@H]3N)nc2[nH]nc(C3(c4ccccc4)CC3)c2c1=O [Example 1] | ≤ 0.02 | – | 1.76
6 | N[C@@H]1c2ccccc2CC12CCN(c1nc3[nH]nc(C4(c5ccccc5)CC4(F)F)c3c(=O)[nH]1)CC2 (stereo partly drawn) [Example 9, 6-((S)-1-amino-1,3-dihydrospiro[indene-2,4′-piperidin]-1′-yl)-3-(2,2-difluoro-1-phenylcyclopropyl)-1,5-dihydro-4H-pyrazolo[3,4-d]pyrimidin-4-one] | ≤ 0.02 | – | 10.4
7 | N[C@@H]1c2ccccc2CC12CCN(c1nc3[nH]nc(C4(c5ccc6c(c5)OC(F)(F)O6)CC4)c3c(=O)[nH]1)CC2 [Example 13, (S)-6-(1-amino-1,3-dihydrospiro[indene-2,4′-piperidin]-1′-yl)-3-(1-(2,2-difluorobenzo[d][1,3]dioxol-5-yl)cyclopropyl)-1,5-dihydro-4H-pyrazolo[3,4-d]pyrimidin-4-one] | ≤ 0.02 | – | –
8 | N[C@@H]1c2ccccc2CC12CCN(c1nc3[nH]nc(C4(c5cccs5)CC4)c3c(=O)[nH]1)CC2 [Example 24, (S)-6-(1-amino-1,3-dihydrospiro[indene-2,4′-piperidin]-1′-yl)-3-(1-(thiophen-2-yl)cyclopropyl)-1,5-dihydro-4H-pyrazolo[3,4-d]pyrimidin-4-one] | – | 0.0016 | 14.8
9 | N[C@@H]1c2ccccc2CC12CCN(c1nc3[nH]nc(C4(c5ccc(Cl)c(Cl)c5)CC4)c3c(=O)[nH]1)CC2 [Example 21, (S)-6-(1-amino-1,3-dihydrospiro[indene-2,4′-piperidin]-1′-yl)-3-(1-(3,4-dichlorophenyl)cyclopropyl)-1,5-dihydro-4H-pyrazolo[3,4-d]pyrimidin-4-one] | ≤ 0.02 | – | –
10 | N[C@@H]1c2ccccc2CC12CCN(c1nc3[nH]nc(C4(c5ccccc5)COC4)c3c(=O)[nH]1)CC2 [Example 96, (S)-6-(1-amino-1,3-dihydrospiro[indene-2,4′-piperidin]-1′-yl)-3-(3-phenyloxetan-3-yl)-1,5-dihydro-4H-pyrazolo[3,4-d]pyrimidin-4-one] | ≤ 0.02 | – | > 30
11 | N[C@@H]1c2ccccc2CC12CCN(c1nc3[nH]nc(C4(c5ccccc5)CC4)c3c(=O)[nH]1)CC2 [Example 33] | – | 0.0009 | 9.5

Continued, in another order:

Row | IC50 ([2]; class symbols) [µM] | IC50 ([2]; numeric values) [µM] | Structure (SMILES) | IC50 [1] [µM]
12 | ≤ 0.02 | – | N[C@@H]1c2ccccc2CC12CCN(c1nc3[nH]nc(C4(c5ccc(O)cc5)CC4)c3c(=O)[nH]1)CC2 [Example 234, (S)-6-(1-amino-1,3-dihydrospiro[indene-2,4′-piperidin]-1′-yl)-3-(1-(4-hydroxyphenyl)cyclopropyl)-1,5-dihydro-4H-pyrazolo[3,4-d]pyrimidin-4-one] | > 30
13 | ≤ 0.02 | – | N[C@@H]1c2ccccc2CC12CCN(c1nc3[nH]nc(C4(c5csnn5)CC4)c3c(=O)[nH]1)CC2 [Example 240, (S)-3-(1-(1,2,3-thiadiazol-4-yl)cyclopropyl)-6-(1-amino-1,3-dihydrospiro[indene-2,4′-piperidin]-1′-yl)-1,5-dihydro-4H-pyrazolo[3,4-d]pyrimidin-4-one] | 17.1
14 | ≤ 0.02 | – | N#Cc1ccc(C2(c3n[nH]c4nc(N5CCC6(CC5)Cc5ccccc5[C@H]6N)[nH]c(=O)c34)CC2)cc1 [Example 237, (S)-4-(1-(6-(1-amino-1,3-dihydrospiro[indene-2,4′-piperidin]-1′-yl)-4-oxo-4,5-dihydro-1H-pyrazolo[3,4-d]pyrimidin-3-yl)cyclopropyl)benzonitrile] | 7.9
15 | ≤ 0.02 | – | N[C@@H]1c2ccccc2CC12CCN(c1nc3[nH]nc(C4(c5ccc(C(F)(F)F)cc5)CC4)c3c(=O)[nH]1)CC2 [Example 228, (S)-6-(1-amino-1,3-dihydrospiro[indene-2,4′-piperidin]-1′-yl)-3-(1-(4-(trifluoromethyl)phenyl)cyclo-propyl)-1,5-dihydro-4H-pyrazolo[3,4-d]pyrimidin-4-one] | –
16 | ≤ 0.02 | – | Nc1ccc(C2(c3n[nH]c4nc(N5CCC6(CC5)Cc5ccccc5[C@H]6N)[nH]c(=O)c34)CC2)cc1 [Example 230, (S)-6-(1-amino-1,3-dihydrospiro[indene-2,4′-piperidin]-1′-yl)-3-(1-(4-aminophenyl)cyclopropyl)-1,5-dihydro-4H-pyrazolo[3,4-d]pyrimidin-4-one] | > 30
